Results: the NIST ThermoML archive (doi:10.1016/j.fluid.2016.03.016)
± gives the expanded uncertainty stated by the source.

Test: mn = molality of the nth substance listed, in mol/kg
Conditions: 100 kPa, Liquid, Vibrating tube method

With `O` [water] + O=C[C@H](O)[C@@H](O)[C@H](O)[C@H](O)CO the mass density (308.15 K, m2 = 0) was 994.063 ± 0.042 kg/m3.

For `O=C[C@H](O)[C@@H](O)[C@H](O)CO` [D-xylose] + O, the mass density (288.15 K, m1 = 0.05973) was 1002.39 ± 1.2 kg/m3, the mass density (288.15 K, m1 = 0.06763) was 1002.82 ± 1.2 kg/m3 and the mass density (288.15 K, m1 = 0.09347) was 1004.22 ± 1.2 kg/m3. The mass density (288.15 K, m1 = 0.1376) was 1006.58 ± 1.2 kg/m3, the mass density (288.15 K, m1 = 0.1501) was 1007.24 ± 1.2 kg/m3 and the mass density (288.15 K, m1 = 0.1698) was 1008.28 ± 1.2 kg/m3. It also gave a mass density (288.15 K, m1 = 0.1873) of 1009.21 ± 1.2 kg/m3, a mass density (298.15 K, m1 = 0.05973) of 1000.28 ± 1.2 kg/m3 and a mass density (298.15 K, m1 = 0.06763) of 1000.71 ± 1.2 kg/m3. It also gave a mass density (298.15 K, m1 = 0.09347) of 1002.09 ± 1.2 kg/m3, a mass density (298.15 K, m1 = 0.1376) of 1004.43 ± 1.2 kg/m3 and a mass density (298.15 K, m1 = 0.1501) of 1005.09 ± 1.2 kg/m3. For the same molecule, the mass density (298.15 K, m1 = 0.1698) was 1006.12 ± 1.2 kg/m3, the mass density (298.15 K, m1 = 0.1873) was 1007.03 ± 1.2 kg/m3 and the mass density (308.15 K, m1 = 0.05973) was 997.274 ± 1.2 kg/m3. The mass density (308.15 K, m1 = 0.06763) was 997.695 ± 1.2 kg/m3, the mass density (308.15 K, m1 = 0.09347) was 999.067 ± 1.2 kg/m3 and the mass density (308.15 K, m1 = 0.1376) was 1001.39 ± 1.2 kg/m3. For the same molecule, the mass density (308.15 K, m1 = 0.1501) was 1002.04 ± 1.2 kg/m3, the mass density (308.15 K, m1 = 0.1698) was 1003.07 ± 1.2 kg/m3 and the mass density (308.15 K, m1 = 0.1873) was 1003.97 ± 1.2 kg/m3. The mass density (318.15 K, m1 = 0.05973) was 993.436 ± 1.2 kg/m3, the mass density (318.15 K, m1 = 0.06763) was 993.851 ± 1.2 kg/m3 and the mass density (318.15 K, m1 = 0.09347) was 995.213 ± 1.2 kg/m3. For the same molecule, the mass density (318.15 K, m1 = 0.1376) was 997.518 ± 1.2 kg/m3, the mass density (318.15 K, m1 = 0.1501) was 998.164 ± 1.2 kg/m3 and the mass density (318.15 K, m1 = 0.1698) was 999.183 ± 1.2 kg/m3. For the same molecule, the mass density (318.15 K, m1 = 0.1873) was 1000.08 ± 1.2 kg/m3.

`O=C[C@H](O)[C@@H](O)[C@H](O)[C@H](O)CO` [D-glucose] + O showed a mass density (288.15 K, m1 = 0.04761) of 1002.39 ± 0.041 kg/m3, a mass density (288.15 K, m1 = 0.08797) of 1005.11 ± 0.043 kg/m3 and a mass density (288.15 K, m1 = 0.09893) of 1005.85 ± 0.044 kg/m3. It also gave a mass density (288.15 K, m1 = 0.1555) of 1009.58 ± 0.047 kg/m3, a mass density (288.15 K, m1 = 0.1767) of 1010.96 ± 0.048 kg/m3 and a mass density (288.15 K, m1 = 0.2008) of 1012.51 ± 0.05 kg/m3. For the same molecule, the mass density (298.15 K, m1 = 0.04761) was 1000.27 ± 0.04 kg/m3, the mass density (298.15 K, m1 = 0.08797) was 1002.97 ± 0.043 kg/m3 and the mass density (298.15 K, m1 = 0.09893) was 1003.7 ± 0.043 kg/m3. It also gave a mass density (298.15 K, m1 = 0.1276) of 1005.58 ± 0.045 kg/m3, a mass density (298.15 K, m1 = 0.2008) of 1010.31 ± 0.049 kg/m3 and a mass density (308.15 K, m1 = 0.04761) of 997.256 ± 0.042 kg/m3. The mass density (308.15 K, m1 = 0.08797) was 999.92 ± 0.042 kg/m3, the mass density (308.15 K, m1 = 0.09893) was 1000.64 ± 0.042 kg/m3 and the mass density (308.15 K, m1 = 0.1276) was 1002.5 ± 0.044 kg/m3. For the same molecule, the mass density (308.15 K, m1 = 0.1555) was 1004.29 ± 0.045 kg/m3, the mass density (308.15 K, m1 = 0.1767) was 1005.64 ± 0.047 kg/m3 and the mass density (318.15 K, m1 = 0.04761) was 993.41 ± 0.043 kg/m3. It also gave a mass density (318.15 K, m1 = 0.08797) of 996.056 ± 0.043 kg/m3, a mass density (318.15 K, m1 = 0.09893) of 996.767 ± 0.043 kg/m3 and a mass density (318.15 K, m1 = 0.1276) of 998.624 ± 0.043 kg/m3. The mass density (318.15 K, m1 = 0.1555) was 1000.4 ± 0.044 kg/m3, the mass density (318.15 K, m1 = 0.1767) was 1001.75 ± 0.045 kg/m3 and the mass density (318.15 K, m1 = 0.2008) was 1003.26 ± 0.046 kg/m3.

With `C[NH+]1CCCC1=O.O=C[O-]` [N-methyl-2-oxopyrrolidinium formate] + O the mass density (288.15 K, m1 = 0.1) was 1000.87 ± 0.041 kg/m3, the mass density (288.15 K, m1 = 0.15) was 1001.64 ± 0.043 kg/m3 and the mass density (288.15 K, m1 = 0.2) was 1002.42 ± 0.044 kg/m3. For the same molecule, the mass density (288.15 K, m1 = 0.25) was 1003.19 ± 0.046 kg/m3, the mass density (298.15 K, m1 = 0.1) was 998.697 ± 0.042 kg/m3 and the mass density (298.15 K, m1 = 0.15) was 999.401 ± 0.043 kg/m3. The mass density (298.15 K, m1 = 0.2) was 1000.1 ± 0.044 kg/m3, the mass density (298.15 K, m1 = 0.25) was 1000.81 ± 0.045 kg/m3 and the mass density (308.15 K, m1 = 0.1) was 995.571 ± 0.043 kg/m3. It also gave a mass density (308.15 K, m1 = 0.15) of 996.217 ± 0.044 kg/m3, a mass density (308.15 K, m1 = 0.2) of 996.862 ± 0.045 kg/m3 and a mass density (308.15 K, m1 = 0.25) of 997.508 ± 0.046 kg/m3. The mass density (318.15 K, m1 = 0.1) was 991.633 ± 0.045 kg/m3, the mass density (318.15 K, m1 = 0.15) was 992.225 ± 0.046 kg/m3 and the mass density (318.15 K, m1 = 0.2) was 992.816 ± 0.047 kg/m3. For the same molecule, the mass density (318.15 K, m1 = 0.25) was 993.408 ± 0.048 kg/m3.

`CCC(=O)[O-].C[NH+]1CCCC1=O` [N-methyl-2-oxopyrrolidinium propionate] + O gave a mass density (288.15 K, m1 = 0.1) of 1000.28 ± 0.042 kg/m3, a mass density (288.15 K, m1 = 0.15) of 1000.81 ± 0.043 kg/m3 and a mass density (288.15 K, m1 = 0.2) of 1001.35 ± 0.045 kg/m3. It also gave a mass density (288.15 K, m1 = 0.25) of 1001.89 ± 0.047 kg/m3, a mass density (298.15 K, m1 = 0.1) of 998.097 ± 0.042 kg/m3 and a mass density (298.15 K, m1 = 0.15) of 998.566 ± 0.044 kg/m3. It also gave a mass density (298.15 K, m1 = 0.2) of 999.034 ± 0.045 kg/m3, a mass density (298.15 K, m1 = 0.25) of 999.503 ± 0.046 kg/m3 and a mass density (308.15 K, m1 = 0.1) of 994.976 ± 0.044 kg/m3. For the same molecule, the mass density (308.15 K, m1 = 0.15) was 995.384 ± 0.045 kg/m3, the mass density (308.15 K, m1 = 0.2) was 995.792 ± 0.046 kg/m3 and the mass density (308.15 K, m1 = 0.25) was 996.2 ± 0.048 kg/m3. For the same molecule, the mass density (318.15 K, m1 = 0.1) was 990.978 ± 0.045 kg/m3, the mass density (318.15 K, m1 = 0.15) was 991.337 ± 0.047 kg/m3 and the mass density (318.15 K, m1 = 0.2) was 991.696 ± 0.048 kg/m3. For the same molecule, the mass density (318.15 K, m1 = 0.25) was 992.055 ± 0.049 kg/m3.
